Assay results reported in patent US20240116918A1, “SUBSTITUTED TRICYCLIC COMPOUND AS PRMT5 INHIBITOR AND USE THEREOF” (NANJING SANHOME PHARMACEUTICAL CO., LTD., priority 2019, published 2024).

Target: PRMT5 (Homo sapiens (Human), UniProt O14744)
Experiment: In vitro evaluation of kinase activity (PRMT5 enzymatic assay, [3H]-SAM FlashPlate)
Format: biochemical
Settings: polypeptide substrate H4(1-21)S1ac 100 nM, [3H]-SAM 250 nM, 25° C., 60 min; read-out: Enzyme IC50 PRMT5
Procedure: Compounds: the compounds of the present invention prepared in the above examples. Each compound was formulated into a 10 mM stock solution with DMSO, and finally diluted into 10 concentrations for detection, with the final concentrations being 10000.00 nM, 3333.33 nM, 1111.11 nM, 370.37 nM, 123.46 nM, 41.15 nM, 13.72 nM, 4.57 nM, 1.52 nM, and 0.51 nM.
Reagents and consumables: PRMTS, purchased from Active Motif, Cat. No. 31921; polypeptide substrate H4(1-21)S1ac, purchased from Gill Biochemical (Shanghai) Co., Ltd., Cat. No. 342095; [^3H]-SAM, purchased From PerkinElmer, Cat. No. NET155V001MC; SAM, purchased from Sigma, Cat. No. A7007-100MG; SAH, purchased from Sigma, Cat. No. A9384-25MG; DTT, purchased from Sangon Bioengineering (Shanghai) Co., Ltd., Cat. No. A620058-0005. Corning-3657, purchased from Corning, Cat. No. 3657; Echo Qualified 384-Well, purchased from Labcyte, Cat. No. P-05525; FlashPlate, purchased from Perkin Elmer, Cat. No. SMP410J001PK.
2.1. Preparation of reaction buffer and reaction stop solution: the composition of 1× reaction buffer was 10 mM Tris-HCl, pH 8.0; 0.01% Tween-20; and 1 mM DTT. The composition of the reaction stop solution was 125 μM […] solution.
The compounds were dissolved in 100% DMSO to prepare 10 mM stock solutions and then diluted to desired concentrations on an Echo 384 well plate.
250 nL of the compounds diluted above were transferred from the Echo 384 well plate to a 384 well reaction plate using the Echo550 instrument.
PRMT5 was added to 1× reaction buffer to form 1.67× enzyme solution.
The polypeptide substrate and [^3H]-SAM were added to 1× reaction buffer to form 2.5× substrate solution (the final concentrations were 100 nM and 250 nM, respectively).
15 μL of 1.67× enzyme solution was added to the wells of a 384 well reaction plate. For control wells without enzymatic activity, the enzyme solution was replaced with 15 μL of 1× reaction buffer. The plate was centrifuged at 1000 rpm for 1 min and incubated at room temperature for 15 min. […]

PRMT5, sequence (O14744 whole entry): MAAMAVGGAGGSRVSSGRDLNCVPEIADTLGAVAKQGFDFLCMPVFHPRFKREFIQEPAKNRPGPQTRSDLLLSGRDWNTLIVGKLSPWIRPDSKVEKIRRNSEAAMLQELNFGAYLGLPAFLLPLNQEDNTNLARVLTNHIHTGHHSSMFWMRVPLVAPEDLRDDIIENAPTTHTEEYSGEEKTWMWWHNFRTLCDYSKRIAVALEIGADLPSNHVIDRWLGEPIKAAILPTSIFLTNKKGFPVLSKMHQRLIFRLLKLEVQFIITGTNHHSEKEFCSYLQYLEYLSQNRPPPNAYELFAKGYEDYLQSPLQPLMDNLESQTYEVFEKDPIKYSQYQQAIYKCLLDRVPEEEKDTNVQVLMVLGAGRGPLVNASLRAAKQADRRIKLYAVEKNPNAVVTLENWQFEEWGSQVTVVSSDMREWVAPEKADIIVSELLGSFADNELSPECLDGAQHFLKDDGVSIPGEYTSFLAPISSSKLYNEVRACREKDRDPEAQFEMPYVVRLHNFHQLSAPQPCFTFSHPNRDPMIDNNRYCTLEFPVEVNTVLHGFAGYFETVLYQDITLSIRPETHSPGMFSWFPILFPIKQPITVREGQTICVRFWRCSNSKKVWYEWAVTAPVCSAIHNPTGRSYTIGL
PRMT5, sequence (Q9BQA1 whole entry partner): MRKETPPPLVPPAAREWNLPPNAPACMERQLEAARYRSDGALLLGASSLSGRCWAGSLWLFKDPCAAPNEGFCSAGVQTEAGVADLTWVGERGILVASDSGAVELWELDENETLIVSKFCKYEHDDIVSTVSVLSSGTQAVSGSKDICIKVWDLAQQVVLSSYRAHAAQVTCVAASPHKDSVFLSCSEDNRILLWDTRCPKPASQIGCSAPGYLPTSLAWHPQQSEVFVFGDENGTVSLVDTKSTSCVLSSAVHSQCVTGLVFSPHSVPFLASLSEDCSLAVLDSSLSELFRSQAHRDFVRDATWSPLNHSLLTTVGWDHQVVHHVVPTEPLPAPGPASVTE

IC50: 2.66 µM
SMILES: CC(=O)N1CC2(CC(Nc3ccc4c(c3)C(=O)N(C[C@H](O)CN3CCc5ccccc5C3)CC43CC3)C2)C1 [Example 10, (R)-7′-((2-Acetyl-2-azaspiro[3.3]hept-6-yl)amino)-2′-(3-(3,4-dihydroisoquinolin-2(1H)-yl)-2-hydroxypropyl)-2′,3′-dihydro-1′H-spiro[cyclopropane-1,4′-isoquinolin]-1′-one]
